Experiments:
[1] = tested on: Human umbilical vein endothelial cells
[2] = molecular target: T1, Recombinant dengue 2 virus envelope protein (Dengue virus type 2, UniProt P27914); assay: Envelope protein binding assay with competitive antagonists, Vero cells, flow cytometry; type: cell-based
T1 construct: extending from the start codon to the beginning of the transmembrane region (nucleotides 1 to 1272); CD5 signal peptide (N); made in house; host or cells: COS-7 cells (transfected; purified from cell lysate on protein A)
Procedure: Panels A-D: Competitive antagonists. Recombinant dengue 2 virus envelope protein was co-incubated with Vero cells in the presence of potential competitive antagonists, and the degree of binding was quantitated by flow cytometry. Abscissa: Competitive antagonist. Binding of envelope protein without antagonist is indicated by dengue Env column. Background binding (cells incubated with normal human IgG instead of envelope protein) is indicated by Control IgG column. Ordinate: Median fluorescence intensity derived from flow cytometry histograms for each sample.
Vero cells were detached from their culture surface without proteases (incubated in cation-free phosphate buffered saline (PBS, Gibco-BRL) with 5 mM EDTA, 10 min. 37° C., washed, and incubated with envelope protein (10 μg/ml) and competitive antagonists (10 μg/ml unless otherwise indicated) in cation containing PBS with 1% normal goat serum (Gibco-BRL), for 1 hour at 4° C. Cells were washed two times, incubated with R-phycoerythrin labeled Fab2 fragment of affinity purified goat antibody to human IgG Fc (5 μg/ml, Jackson Labs.) for 1 hour at 4° C., and washed two times. Cellular fluorescence and forward angle light scatter were quantitated by flow cytometry (FACScan, Becton Dickinson). A minimum of 10,000 cells was assessed from each treatment group. Data were accumulated only for viable cells; non-viable cells were excluded from analysis on the basis of low forward angle light scatter. Results were expressed as frequency histograms of fluorescence per cell. A value for median fluorescence intensity was derived from the fluorescence frequency histograms for each sample, and used to compare fluorescence between samples. In each experiment, controls consisted of untreated cells, cells incubated with only the secondary fluorochrome-labeled antibody, and cells incubated with normal human IgG followed by the secondary fluorochrome-labeled antibody.
Chondroitin sulfate (CS) from bovine trachea, dermatan sulfate (DS) from bovine mucosa, heparan sulfate (HS) from bovine kidney, heparin from bovine lung, keratan sulfate (KS) from bovine cornea, and dextran sulfate (DexS) (MW 5×105) were obtained from Sigma Chemical Co. and used at a concentration of 10 μg/ml.

[3] = tested on: dengue 2 New Guinea C strain virus; assay: Infectivity assay, dengue virus infection of Vero cells (cytopathic effect); type: cell-based, dengue 2 virus

[Na+].[O-][Cl+2]([O-])[O-] [sodium chlorate]
envelope protein binding after sulfation inhibition (Vero cells): complete loss of binding | envelope protein binding after sulfation inhibition [1]: dose dependent partial inhibition of binding

dextran sulfate [DexS]
inhibition of envelope protein binding to Vero cells (competitive antagonist) ([2]; antagonist 10 μg/ml): no effect | inhibition of envelope protein binding to Vero cells (competitive antagonist) ([2]; concentrations up to 30 μg/ml): no inhibitory effect

sulfated lactobionic acid
inhibition of envelope protein binding by polyanionic compounds [2]: inhibited envelope protein binding

Cc1ccc(C(=O)Nc2ccc(S(=O)(=O)O)c3cc(S(=O)(=O)O)cc(S(=O)(=O)O)c23)cc1NC(=O)c1cccc(NC(=O)Nc2cccc(C(=O)Nc3cc(C(=O)Nc4ccc(S(=O)(=O)O)c5cc(S(=O)(=O)O)cc(S(=O)(=O)O)c45)ccc3C)c2)c1 [Suramin]
inhibition of envelope protein binding by polyanionic compounds [2]: inhibited envelope protein binding | effect on infectious titer ([3]; Vero cells incubated with compound, washed before exposure to virus): no effect on infectious titer | prevention of dengue virus infection of Vero cells ([3]; high doses (0-2.5 mg/ml), compound incubated with virus): completely protective at high doses
